US20250114374A1, “BCL-2 INHIBITORS” (Newave Pharmaceutical Inc., priority 2021, published 2025)

Key:
[1] = cited from earlier work
[2] = test system: cells from lymphoma and small-cell lung carcinoma lines, primary patient-derived cells; conditions: single agent; cited from earlier work
[3] = test system: RS4; 11 with G101V mutation; experiment: In vitro anti-proliferation assay (ATPlite luminescence) in BCL-2-dependent ALL cell line RS4;11 with G101V mutation; format: cell-based; conditions: Homo sapiens, RS4-11, 72 h; read-out: RS411-G101V IC50
How it was run: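 RS4;11 G101V cells at about 1×10^4 per well were exposed to a range of compound concentrations for about 72 h in medium with 10% FBS. Cellular ATP was measured by ATPlite luminescence after lysis, and IC50 was derived from the dose-response.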

RS4; 11 cells = conditions: cited from earlier work
CLL = conditions: read-out: average EC50, apoptosis; cited from earlier work
RS4; 11 xenografts = conditions: single dose of 100 mg/kg; cited from earlier work
[4] = test system: DoHH2, Granta-519 xenografts; conditions: single agent or in combination with Bendamustine and other agents; cited from earlier work
[5] = test system: CLL who have 17p deletion; conditions: Human Phase I and II, CLL with 17p deletion; cited from earlier work
Mcl-1 = Mcl-1 (Homo sapiens, UniProt Q07820); conditions: cited from earlier work
Mcl-1, sequence (Q07820 whole entry): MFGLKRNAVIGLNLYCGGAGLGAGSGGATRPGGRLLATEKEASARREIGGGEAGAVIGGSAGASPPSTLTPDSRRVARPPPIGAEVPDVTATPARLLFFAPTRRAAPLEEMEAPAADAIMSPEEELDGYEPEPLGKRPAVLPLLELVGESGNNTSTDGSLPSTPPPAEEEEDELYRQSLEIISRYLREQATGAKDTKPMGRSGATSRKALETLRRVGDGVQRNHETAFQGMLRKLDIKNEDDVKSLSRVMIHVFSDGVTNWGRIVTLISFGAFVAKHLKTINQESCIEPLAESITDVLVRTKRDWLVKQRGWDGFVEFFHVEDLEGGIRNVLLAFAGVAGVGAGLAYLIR

Compound | aqueous solubility [1] | cell killing [2] | IC50 [3] [nM] | EC50 (RS4; 11 cells; RS4, 11 cells) [nM] | apoptosis in RS4; 11 cells (RS4; 11 cells; cytochrome c release, caspase activation, accumulation of sub-G0/G1 DNA) | EC50 (CLL) [nM] | maximal tumor growth inhibition (RS4; 11 xenografts) [%] | tumor growth delay (RS4; 11 xenografts) [%] | xenograft growth [4] | clinical efficacy [5] | activity to Mcl-1 (Mcl-1)
CN(C)CC[C@H](CSc1ccccc1)Nc1ccc(S(=O)(=O)NC(=O)c2ccc(N3CCN(Cc4ccccc4-c4ccc(Cl)cc4)CC3)cc2)cc1[N+](=O)[O-] [ABT-737] | low | single-agent-mechanism-based killing | – | – | – | – | – | – | – | – | –
CC1(C)CCC(CN2CCN(c3ccc(C(=O)NS(=O)(=O)c4ccc(NCC5CCOCC5)c([N+](=O)[O-])c4)c(Oc4cnc5[nH]ccc5c4)c3)CC2)=C(c2ccc(Cl)cc2)C1 [ABT-199] | – | – | 783 | 8 | rapid apoptosis | 3 | 95 | 152 | inhibits xenograft growth | highly efficacious | no activity
